Measured values: patent US20100087649A1, “QUINOLINONE DERIVATIVES” (priority 2006, published 2010)

What was measured:
[1] = tested on: wild-type HIV-IIIB strain; experiment: Antiviral analysis EGFP: anti-HIV activity in MT4 LTR-EGFP cells; format: cell-based, HIV-1; details: fluorescence of HIV-infected cells reduced by 50%, three days after infection
Method: The compounds of the present invention were tested for anti-viral activity in a cellular assay, which was performed according to the following procedure.
The human T-cell line MT4 is engineered with Green Fluorescent Protein (GFP) and an HIV-specific promoter, HIV-1 long terminal repeat (LTR). This cell line is designated MT4 LTR-EGFP, and can be used for the in vitro evaluation of anti-HIV activity of investigational compounds. In HIV-1 infected cells, the Tat protein is produced which upregulates the LTR promotor and finally leads to stimulation of the GFP reporter production, allowing measuring ongoing HIV-infection fluorometrically.
(§1) Effective concentration values such as 50% effective concentration (EC50) can be determined and are usually expressed in μM. An EC50 value is defined as the concentration of test compound that reduces the fluorescence of HIV-infected cells by 50%. The 50% cytotoxic concentration (CC50 in μM) is defined as the concentration of test compound that reduces fluorescence of the mock-infected cells by 50%. The ratio of CC50 to EC50 is defined as the selectivity index (SI) and is an indication of the selectivity of the anti-HIV activity of the inhibitor. The ultimate monitoring of HIV-1 infection and cytotoxicity is done using a scanning microscope. Image analysis allows very sensitive detection of viral infection. Measurements are done before cell necrosis, which usually takes place about five days after infection, in particular measurements are performed three days after infection.
The following Table 5 lists EC50 values, expressed in micromole/liter, against wild-type HIV-IIIB strain, for a selected number of compounds of the invention.

MT4 CMV-EGFP cells = experiment: Cytotoxicity in mock-infected MT4 CMV-EGFP cells; format: cell-based, human; details: fluorescence reduced by 50%
Description: Analogously, MT4 cells are engineered with GFP and the constitutional cytomegalovirus (CMV) promotor. This cell line is designated MT4 CMV-EGFP, and can be used for the in vitro evaluation of cytotoxicity of investigational compounds. In this cell line, GFP levels are comparably to those of infected MT4 LTR-EGFP cells. Cytotoxic investigational compounds reduce GFP levels of mock-infected MT4 CMV-EGFP cells.
as §1

| SMILES | EC50 [1] [µM] | CC50 (MT4 CMV-EGFP cells) [µM] |
| --- | --- | --- |
| CCC(CC)NCCCOc1ccc2cc(C#N)c(=O)n(-c3ccc([N+](=O)[O-])cc3)c2c1 [compound 68] | 0.73 | 51.6 |
| COCCNc1ccc2cc(C#N)c(=O)n(-c3ccc([N+](=O)[O-])cc3)c2c1 [compound 17] | > 32 | > 32 |
| N#Cc1c(N)c2ccccc2n(-c2ccc(Cl)nc2)c1=O [compound 104] | 19.5 | > 32 |
| N#Cc1c(NCCCn2ccnc2)c2ccccc2n(-c2ccc([N+](=O)[O-])cc2)c1=O [compound 140] | > 100 | > 100 |
| N#Cc1c(NCCN)c2ccccc2n(-c2ccc([N+](=O)[O-])cc2)c1=O [compound 133] | 0.23 | 20.1 |
| CN(C)Cc1cccc(-c2ccc3cc(C#N)c(=O)n(-c4ccc([N+](=O)[O-])cc4)c3c2)c1 [compound 45] | 0.14 | 17.1 |
| N#Cc1cc2ccc(-c3ccoc3)cc2n(-c2ccc([N+](=O)[O-])cc2)c1=O [compound 41] | 0.28 | 38.1 |
| N#Cc1cc2ccc(OCCCN3CCOCC3)cc2n(-c2ccc([N+](=O)[O-])cc2)c1=O [compound 56] | 1.4 | > 32 |
| CN(C)C(=O)c1ccc(-c2ccc3cc(C#N)c(=O)n(-c4ccc([N+](=O)[O-])cc4)c3c2)cc1 [compound 40] | 0.95 | > 100 |
| N#Cc1cc2cc3c(cc2n(-c2ccc([N+](=O)[O-])cc2)c1=O)OCO3 [compound 6] | 1.12 | > 100 |
| N#Cc1cc2ccc(OCCCN)cc2n(-c2ccc([N+](=O)[O-])cc2)c1=O [compound 57] | 1.06 | 49.6 |
| N#Cc1cc2ccc(-c3cnccn3)cc2n(-c2ccc([N+](=O)[O-])cc2)c1=O [compound 78] | 1.32 | > 100 |
| N#Cc1c(N)c2ccc(-c3cscn3)cc2n(-c2ccc([N+](=O)[O-])cc2)c1=O [compound 120] | 0.54 | > 100 |
| Cc1ccc(-n2c(=O)c(C#N)c(N)c3ccc(-c4cc[nH]n4)cc32)cc1C#N [compound 124] | 83.9 | > 100 |
| CNCCNc1c(C#N)c(=O)n(-c2ccc([N+](=O)[O-])cc2)c2ccccc12 [compound 135] | 3.37 | 53.2 |
| N#Cc1c(N)c2ccc(Cl)cc2n(-c2ccc3nonc3c2)c1=O [compound 113] | 2.73 | > 100 |
| N#Cc1cc2ccc(-c3cccc(CO)c3)cc2n(-c2ccc([N+](=O)[O-])cc2)c1=O [compound 38] | 0.61 | 18.6 |
| N#Cc1cc2ccc(-c3cccc(O)c3)cc2n(-c2ccc([N+](=O)[O-])cc2)c1=O [compound 32] | 0.65 | > 100 |
| CNc1c(C#N)c(=O)n(-c2ccc(C)c(C#N)c2)c2ccccc12 [compound 165] | 7.94 | > 100 |
| Cc1ccc2cc(C#N)c(=O)n(-c3ccc([N+](=O)[O-])cc3)c2c1 [compound 95] | > 100 | > 100 |
| Cc1ccc(-n2c(=O)c(C#N)cc3ccc(-c4cccn4C)cc32)cc1C#N [compound 154] | 10 | > 100 |
| N#Cc1cc2ccc(NCCN3CCCC3)cc2n(-c2ccc([N+](=O)[O-])cc2)c1=O [compound 12] | 1.22 | > 100 |
| Cc1ccc(-n2c(=O)c(C#N)c(N)c3ccccc32)cc1C#N [compound 166] | 3.01 | > 100 |
| CCN(CC)CCOc1ccc2cc(C#N)c(=O)n(-c3ccc([N+](=O)[O-])cc3)c2c1 [compound 59] | 12.9 | > 32 |
| CNc1c(C#N)c(=O)n(-c2ccc([N+](=O)[O-])cc2)c2ncccc12 [compound 128] | 13.9 | > 32 |

| SMILES | EC50 [1] [µM] | CC50 (MT4 CMV-EGFP cells) [µM] |
| --- | --- | --- |
| N#Cc1cc2ccc(-c3cccc(N)c3)cc2n(-c2ccc([N+](=O)[O-])cc2)c1=O [compound 37] | 0.42 | > 100 |
| N#Cc1cc2ccc(-c3cn[nH]c3)cc2n(-c2ccc([N+](=O)[O-])cc2)c1=O [compound 48] | 0.71 | > 100 |
| N#Cc1c(NCCCN2CCCC2)c2ccccc2n(-c2ccc([N+](=O)[O-])cc2)c1=O [compound 132] | 2.04 | 15.3 |
| CCNCCCOc1ccc2cc(C#N)c(=O)n(-c3ccc([N+](=O)[O-])cc3)c2c1 [compound 65] | 0.26 | 69 |
| N#Cc1cc2ccc(O)cc2n(-c2ccc(Cl)nc2)c1=O [compound 91] | > 32 | > 32 |
| N#Cc1cc2ccc(-c3cccc(CN)c3)cc2n(-c2ccc([N+](=O)[O-])cc2)c1=O [compound 30] | 0.63 | 24.7 |
| CNCCNc1ccc2cc(C#N)c(=O)n(-c3ccc([N+](=O)[O-])cc3)c2c1 [compound 15] | 1.37 | > 32 |
| N#Cc1cc2ccc(OCCN)cc2n(-c2ccc([N+](=O)[O-])cc2)c1=O [compound 53] | 1.14 | > 100 |
| CCN(CC)CCCOc1ccc2cc(C#N)c(=O)n(-c3ccc([N+](=O)[O-])cc3)c2c1 [compound 66] | 1.26 | > 32 |
| CN(C)CCCOc1ccc2c(c1)cc(C#N)c(=O)n2-c1ccc([N+](=O)[O-])cc1 [compound 85] | 1.15 | > 32 |
| Cc1ccc(-n2c(=O)c(C#N)cc3ccc(-c4cscn4)cc32)cc1C#N [compound 160] | 0.33 |  |
| N#Cc1c(NCCO)c2ccccc2n(-c2ccc([N+](=O)[O-])cc2)c1=O [compound 134] | 13.5 | 54.6 |
| N#Cc1cc2ccc(-c3ccc(C(N)=O)cc3)cc2n(-c2ccc([N+](=O)[O-])cc2)c1=O [compound 35] | 1.71 | 22.6 |
| COc1cc2c(N)c(C#N)c(=O)n(-c3ccc([N+](=O)[O-])cc3)c2cc1OC [compound 109] | 13.5 | > 100 |
| N#Cc1cc2ccc(OCCO)cc2n(-c2ccc([N+](=O)[O-])cc2)c1=O [compound 75] | 3.49 | > 32 |
| N#Cc1cc2ccc(-c3cncnc3)cc2n(-c2ccc([N+](=O)[O-])cc2)c1=O [compound 31] | 7.9 | > 100 |
| N#Cc1cc2ccc(-c3cscn3)cc2n(-c2ccc([N+](=O)[O-])cc2)c1=O [compound 81] | 0.15 | > 100 |
| N#Cc1cc2ccc(-c3ccc(C(=O)O)cc3)cc2n(-c2ccc([N+](=O)[O-])cc2)c1=O [compound 49] | > 100 | > 100 |
| CC(=O)Nc1cccc(-c2ccc3cc(C#N)c(=O)n(-c4ccc([N+](=O)[O-])cc4)c3c2)c1 [compound 39] | 51.3 | > 100 |
| N#Cc1cc2ccccc2n(-c2ccc([N+](=O)[O-])cn2)c1=O [compound 3] | 4.8 | > 32 |
| N#Cc1cc2ccc(NCCCN)cc2n(-c2ccc([N+](=O)[O-])cc2)c1=O [compound 19] | 0.91 | 30.6 |
| CN(C)CCCNc1c(C#N)c(=O)n(-c2ccc([N+](=O)[O-])cc2)c2ccccc12 [compound 139] | 2.16 | 59.5 |
| N#Cc1cc2cc(OC[C@H]3CCCN3)ccc2n(-c2ccc([N+](=O)[O-])cc2)c1=O [compound 87] | 1.19 | > 32 |
| N#Cc1cc2ccc(-c3ncco3)cc2n(-c2ccc([N+](=O)[O-])cc2)c1=O [compound 79] | 0.12 |  |
